Data on 13 molecules can be found in paper PMC8268740, “Evaluation of Firefly and Renilla Luciferase Inhibition in Reporter-Gene Assays: A Case of Isoflavonoids” (International Journal of Molecular Sciences, 2021).

Values joined by “and” are separate entries in the source; they are usually repeats but may differ in a detail not shown here. Equal values may be shown once. “Also recorded” adds a separate entry of the source. Read-outs that look alike come from different tables or passages of the source.

Assay [1] concerns the target T1, firefly luciferase (FLuc) (Photinus pyralis, UniProt P08659).
T1 construct: host or cells: AR-EcoScreen (Chinese hamster ovary derived), lysate after dihydrotestosterone induction
In words: Cell-lysate (AR-EcoScreen) in vitro firefly luciferase inhibition assay. Format: biochemical. Conditions: for IC50 / FLuc inhibition (result in words): AR-EcoScreen cell lysate; for inhibition at 1 µM / inhibition at 10 µM / inhibition at 100 µM: read-out: inhibition of FLuc; for FLuc inhibition (result in words): screened at 1, 10, 100 µM. As to the method: (§1) Preparation of cell lysates for use in the luciferase inhibition assays was through seeding of 4–7 ×10^6 cells into a 150 cm^2 growth flask (an equivalent surface density to that indicated in OECD TG 458 [10]) for 24 h at 37 °C under 5% CO2. Upon incubation, dihydrotestosterone (Sigma-Aldrich, St. Louis, MO, USA) diluted in DMSO was added at 10 nM final concentration. This was followed by another 24-h incubation, removal of medium, and addition of 9.4 mL reporter lysis buffer (Promega, Madison, WI, USA). The growth flask was then stored at −80 °C until use.
The cell lysate was thawed at room temperature. Stock solutions of the isoflavonoids and positive controls were dissolved in DMSO and 10-fold serially diluted in the cell lysate to the final concentration with 1% DMSO. Twenty microliters of each isoflavonoid in the cell lysate were transferred to 96-well plates in triplicate and incubated for 30 min at room temperature. Then, 30 µL Luciferase Assay Reagent II (contained in the Dual-Luciferase Reporter Assay System; Promega, Madison, WI, USA) was added to each well, and the FLuc luminescence was measured using a microplate reader (Synergy 4 hybrid; BioTek, Winooski, VT, USA). The addition of 30 µL of Stop & Glo Reagent (contained in the Dual-Luciferase Reporter Assay System) followed, and the RLuc luminescence was recorded using the microplate reader (Synergy 4 hybrid; BioTek, Winooski, VT, USA).
The data from the in vitro luciferase inhibition assays in the AR-EcoScreen cell lysate were processed by first subtracting the background value (i.e., reporter lysis buffer alone) and then normalization to the vehicle control (1% DMSO), and are expressed as means ± standard deviation of three independent repeats carried out as technical triplicates. […] Statistical significance as compared to the vehicle control, considered: *, p ≤ 0.05; **, p ≤ 0.01; and ****, p ≤ 0.0001, using one-way ANOVA, followed by post-hoc Dunnett’s tests.

A further assay concerns isolated FLuc. Conditions: cited from earlier work.
The test system of the next assay is RLuc. The note with it: read-out: IC50 RLuc inhibition; in the presence of 10 µM coelenterazine; cited from earlier work.
Assay [2] deals with T2, Renilla luciferase (RLuc) (Renilla reniformis, UniProt P27652).
T2 construct: host or cells: AR-EcoScreen (Chinese hamster ovary derived), lysate
T2 sequence (P27652 1-311): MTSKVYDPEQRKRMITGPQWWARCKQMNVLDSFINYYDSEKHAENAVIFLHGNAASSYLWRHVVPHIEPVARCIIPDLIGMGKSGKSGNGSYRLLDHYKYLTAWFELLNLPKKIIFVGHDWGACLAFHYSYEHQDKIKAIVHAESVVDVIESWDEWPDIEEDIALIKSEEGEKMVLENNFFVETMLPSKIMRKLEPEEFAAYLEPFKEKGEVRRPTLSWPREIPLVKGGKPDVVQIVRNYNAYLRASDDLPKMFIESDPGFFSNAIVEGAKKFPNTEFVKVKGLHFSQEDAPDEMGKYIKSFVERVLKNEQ
In words: Cell-lysate (AR-EcoScreen) in vitro Renilla luciferase inhibition assay. The assay is classed as biochemical. As for the experimental part: as §1
The cell lysate was thawed at room temperature. Stock solutions of the isoflavonoids and positive controls were dissolved in DMSO and 10-fold serially diluted in the cell lysate to the final concentration with 1% DMSO. […] Then, 30 µL Luciferase Assay Reagent II (contained in the Dual-Luciferase Reporter Assay System; Promega, Madison, WI, USA) was added to each well, and the FLuc luminescence was measured using a microplate reader (Synergy 4 hybrid; BioTek, Winooski, VT, USA). The addition of 30 µL of Stop & Glo Reagent (contained in the Dual-Luciferase Reporter Assay System) followed, and the RLuc luminescence was recorded using the microplate reader (Synergy 4 hybrid; BioTek, Winooski, VT, USA). […]

[3] abbreviates: read-out: IC50 firefly luciferase inhibition.
Where [4] appears, read: IC50 firefly luciferase inhibition.

T1 sequence (P08659 whole entry): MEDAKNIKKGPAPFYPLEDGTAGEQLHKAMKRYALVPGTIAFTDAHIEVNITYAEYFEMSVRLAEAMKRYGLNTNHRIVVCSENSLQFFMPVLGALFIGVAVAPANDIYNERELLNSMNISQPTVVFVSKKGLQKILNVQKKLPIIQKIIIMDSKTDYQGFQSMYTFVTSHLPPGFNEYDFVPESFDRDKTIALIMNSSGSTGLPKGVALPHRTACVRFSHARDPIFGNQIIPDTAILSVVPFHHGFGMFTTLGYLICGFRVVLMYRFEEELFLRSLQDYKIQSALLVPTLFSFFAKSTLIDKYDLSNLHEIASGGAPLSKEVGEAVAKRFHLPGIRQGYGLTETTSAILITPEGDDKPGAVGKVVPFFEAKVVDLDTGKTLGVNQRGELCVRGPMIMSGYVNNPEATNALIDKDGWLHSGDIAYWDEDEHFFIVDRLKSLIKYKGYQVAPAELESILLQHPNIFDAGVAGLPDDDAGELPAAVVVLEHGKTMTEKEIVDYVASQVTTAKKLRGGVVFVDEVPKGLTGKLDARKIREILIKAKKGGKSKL

One may read the IC50 as the point on the concentration scale where inhibition reaches its midpoint. By inhibition is commonly meant the drop in the measured response relative to a control, in per cent. `COc1ccc(-c2coc3cc(O)ccc3c2=O)cc1` [Formononetin, formononetin]: the IC50 in assay [1] (setting [3]) worked out at 3.88 µM. The inhibition at 1 µM in assay [1] amounted to 32.4%.
As to `COc1cc2c(=O)c(-c3ccc(O)cc3)coc2cc1O` [Glycitein], in assay [1] (setting [4]), the IC50 came out at 26.4 µM. Further, the inhibition at 10 µM in assay [1] was 30.1%.
Take `COc1cc2c(=O)c(-c3ccc(O)cc3)coc2cc1O[C@@H]1O[C@H](CO)[C@@H](O)[C@H](O)[C@H]1O` [Glycitin, glycitin]: in assay [1], the “FLuc inhibition (result in words)” value was “inactive; also recorded: did not show inhibition of FLuc at all”.
Turning to `O=c1c(-c2ccc(O)cc2)coc2cc(O[C@@H]3O[C@H](CO)[C@@H](O)[C@H](O)[C@H]3O)cc(O)c12` [Genistin, genistin], the “FLuc inhibition (result in words)” value in assay [1] was “inactive”; in assay [1] (listed as genistin), “did not show inhibition of FLuc at all”.
On to `Oc1ccc(/C=C/c2cc(O)cc(O)c2)cc1` [Resveratrol, resveratrol], for which the half-inhibitory concentration (IC50) in the assay on isolated FLuc is 2 µM.
For the molecule `O=c1c(-c2ccc(O)cc2)coc2cc(O)cc(O)c12` [Genistein, genistein], the IC50 in assay [1] (setting [4]) stood at 36.9 µM. Moreover, the inhibition at 100 µM in assay [1] was determined as 71.2%.
Taken in the same sequence, the figures for `O=c1c(-c2ccc(O)cc2)coc2cc(O)ccc12` [Daidzein] were 51.4 µM and 60.9%.
With `COc1ccc(-c2coc3cc(O)ccc3c2=O)cc1O` [Calycosin], the IC50 in assay [1] (setting [4]) is 4.96 µM. Besides, the inhibition at 10 µM in assay [1] stood at 66.2%.
For `COc1cc(O)c2c(=O)c(-c3ccc(O)cc3)coc2c1` [Prunetin, prunetin], the concentration for half-maximal inhibition (IC50) in assay [1] (setting [4]) was determined as 16.3 µM. For the same molecule, in assay [1], the inhibition at 10 µM was found to be 40.7%.
For `O=S(=O)(NCCNC/C=C/c1ccc(Br)cc1)c1cccc2cnccc12` [H-89], the IC50 is 10 µM in the assay on RLuc and 338 µM in assay [2].
Turning to `O=c1c(-c2ccc(O)cc2)coc2cc(O[C@@H]3O[C@H](CO)[C@@H](O)[C@H](O)[C@H]3O)ccc12` [Daidzin, daidzin], in assay [1], the “FLuc inhibition (result in words)” value is “inactive; also recorded: did not show inhibition of FLuc at all”.
Still for that read-out and setting: with `Oc1ccc([C@H]2COc3cc(O)ccc3C2)cc1` [S-Equol, S-equol] the entry was “inactive; also recorded: did not show inhibition of FLuc at all”.
As to `COc1ccc(-c2coc3cc(O)cc(O)c3c2=O)cc1` [Biochanin A, biochanin A], the IC50 in assay [1] (setting [3]) was 0.636 µM and 0.64 µM. For the same molecule, the inhibition at 1 µM in assay [1] stood at 62.4%.
